According to patent US8821850B2, “Protein-polymer-drug conjugates” (Mersana Therapeutics, Inc., priority 2011, dated 2014):
Read-outs that look alike come from different tables or passages of the source. Square brackets hold non-standard residues; d marks the D form. Peptide text beside a SMILES is read from it. * marks the point of attachment. Dolaproine = CO[C@@H]([C@@H]1CCCN1)[C@@H](C)C(=O)O; Dil = CC[C@H](C)[C@H](NC)[C@@H](CC(=O)O)OC; NMe2Val = CC(C)[C@@H](C(=O)*)N(C)C; X1 = C[C@H](N)C(=O)OCCCN*

Columns and labels:
Type in all cases: cell-based
[1] = tested on: HER2 expressing cells BT474; test: Cell viability assay (Cell Titer-Glo), BT474; conditions: read-out: BT474 IC50
Protocol: (§1) PBRM-drug polymer conjugates were evaluated for their tumor viability using Cell Titer-Glo (Promega Corp). Cells were plated in black walled 96-well plate and allowed to adhere overnight at 37° C. in a humidified atmosphere of 5% CO2. HER2 expressing cells SKBR3, BT474, NCI-N87 and cells expressing low levels of HER2-MCF7 were plated at a density of 5,000 cells per well. The next day the medium was replaced with 50 μL fresh medium and 50 μL of 2× stocks of PBRM-drug polymer conjugate, drug polymer conjugate or drug were added to appropriate wells, mixed and incubated for 72 h. Cell Titer-Glo reagent was added to the wells at room temperature and the luminescent signal was measured after 10 min using a SpectraMax M5 plate reader (Molecular Devices). Dose response curves were generated using SoftMax Pro software. IC50 values were determined from four-parameter curve fitting.

[2] = tested on: cells expressing low levels of HER2-MCF7; test: Cell viability assay (Cell Titer-Glo), MCF7
Protocol: as §1

[3] = tested on: HER2 expressing cells NCI-N87; test: Cell viability assay (Cell Titer-Glo), NCI-N87; conditions: read-out: N87 IC50
Protocol: as §1

[4] = tested on: HER2 expressing cells SKBR3; test: Cell viability assay (Cell Titer-Glo), SKBR3
Protocol: as §1

[5] = Table XIII, 72 h, conjugates with high drug loading
[6] = Table XIII, 72 h, conjugates with high drug loading, read-out: MCF7 IC50
[7] = Table XIII, 72 h, conjugates with high drug loading, read-out: SKBR3 IC50
[8] = Table XII, 72 h, conjugates with PBRM MW<80 kDa, read-out: MCF7 IC50
[9] = Table XII, 72 h, conjugates with PBRM MW<80 kDa, read-out: SKBR3 IC50
[10] = Homo sapiens, MCF7, 72 h, read-out: MCF7 IC50, Table II

Molecule	IC50 [1, 5] [nM]	IC50 [2, 6] [nM]	IC50 [3, 5] [nM]	IC50 [4, 7] [nM]	IC50 ([1]; Homo sapiens, BT-474, 72 h) [nM]	further results
22 kDa PHF-BA-(AF HPA)-SS-Rituximab [Example 94, Conjugate C]	2.82	4.17	5.84			
22 kDa PHF-BA-(AF HPA-L-Alanine)-SS-Trastuzumab [Example 94, Conjugate A]	0.05	9.5	0.12	0.008		
47 kDa PHF-BA-(AF HPA-L-Alanine)-SS-Rituximab [Example 94, Conjugate D]	1.1	8.8	10.9	0.26		
47 kDa PHF-BA-(AF HPA-L-Alanine)-SS-Trastuzumab [Example 94, Conjugate B]	< 0.05	7.4	~0.3	< 0.05		
105 kDa PHF-BA (AF HPA-L-Alanine)-SS-(Trastuzumab-Fab′) [Example 96 Conjugate A]						IC50 [2, 8]: > 100 nM; IC50 [4, 9]: 0.6 nM
156 kDa PHF-BA (AF HPA-L-Alanine)-SS-(Trastuzumab-Fab′) [Example 96 Conjugate B]						IC50 [2, 8]: > 100 nM; IC50 [4, 9]: 1 nM
CCC1(O)C[C@H]2C[N@](CCc3c([nH]c4ccccc34)[C@@](C(=O)OC)(c3cc4c(cc3OC)N(C)C3C45CCN4CC=C[C@](CC)(C45)[C@@H](O)[C@]3(O)C(=O)NC[C@H](C)O)C2)C1 (stereo partly drawn) [Example 22, (S)-2HPV]					0.41	IC50 [2, 10]: 1.83 nM
CCC1(O)C[C@H]2C[N@](CCc3c([nH]c4ccccc34)[C@@](C(=O)OC)(c3cc4c(cc3OC)N(C)C3C45CCN4CC=C[C@](CC)(C45)[C@@H](O)[C@]3(O)C(=O)NC[C@@H](C)O)C2)C1 (stereo partly drawn) [Example 23, (R)-2HPV]					0.39	IC50 [2, 10]: 1.71 nM; IC50 ([4]; Homo sapiens, SK-BR-3, 72 h, read-out: SKBR3 IC50, Table II): 0.71 nM
CC[C@H](C)[C@@H]([C@@H](CC(=O)N1CCC[C@H]1[C@H](OC)[C@@H](C)C(=O)N[C@@H](Cc1ccccc1)C(=O)NCCCOC(=O)[C@H](C)N)OC)N(C)C(=O)[C@@H](NC(=O)[C@H](C(C)C)N(C)C)C(C)C [Example 50, AF HPA-L-Alanine] (NMe2Val-V[Dil][Dolaproine]F-X1)					0.85	IC50 ([2]; Homo sapiens, MCF7, 72 h, read-out: MCF7 IC50, Table XIII, conjugates with high drug loading): 8.5 nM; IC50 ([2]; read-out: MCF7 IC50, Table XIII, 72 h, conjugates with high drug loading): 8.2 nM; IC50 ([3]; Homo sapiens, NCI-N87, 72 h): 1.6 nM; IC50 ([4]; Homo sapiens, SK-BR-3, 72 h, read-out: SKBR3 IC50, Table XIII, conjugates with high drug loading): 0.32 nM
